Assay results published in publication PMC11593952 (International Journal of Molecular Sciences, 2024).
Like-named read-outs stand apart in the source and are kept apart here.

Experiments:
in vivo [1] = conditions: for exposure in the plasma, fold higher than CBD, L1, and L3: oral
Procedure: (§1) Animal experiments were conducted in accordance with the National Institutes of Health Laboratory Animal Care and Use Guidelines. Male SPF SD rats from the Animal Center of Anhui Medical University (Hefei, China) were used for the experiment. […] At each time point (0.5, 1, 2, 4, and 8 h) after administration, samples of brain, heart, kidney, liver, lung, and spleen were collected from each rat for tissue distribution study. While for pharmacokinetic study, the plasma samples were gathered from the suborbital vein at 5, 15, 30, and 45 min and 1, 2, 4, 8, and 12 h after oral administration. The maintenance and treatment procedures for experimental animals were approved by the Animal Care and Use Committee of Anhui Medical University (approval number: LLSC20190274). Room temperature was 22 ± 2 °C, using a light/dark (12: 12 h) cycle, the animals were free to consume food and water one day before the experiment.
(§2) An aliquot of 60 μL plasma sample was spiked with 60 µL aqueous ascorbic acid (0.1%) and 20 μL of IS working solution (300 ng/mL). After vortexing for 30 s, 400 µL MTBE was added to plasma sample for liquid–liquid extraction. The mixture was vigorously mixed for 10 min and centrifuged at 12,000 rpm at 4 °C for 5 min; approximately 400 µL of supernatant was transferred to a clean 1.5 mL centrifuge tube and dried under a gentle stream of nitrogen gas. Subsequently, the residue was reconstituted with 100 µL of MeOH/water (7: 3, v/v), vortex-mixed for 2 min, and followed by centrifugation at 12,000 rpm for 20 min. Finally, 20 μL of the supernatant was injected into the UPLC-HRMS system for measurement. The tissue sample (100 mg) was homogenized in normal saline solution (1 mL), 600 μL homogenate sample was spiked with 60 µL aqueous ascorbic acid (0.1%) and 50 μL of the IS working solution (1000 ng/mL), and 1.2 mL MTBE was added for extraction. Then, 1 mL of supernatant was dried and proceeded as plasma sample pretreatment (Figure S1).
(§3) Quantitative analysis using Dionex Ultimate 3000 chromatography hyphenated to Q-Exactive plus Orbitrap mass spectrometer system (Thermo Fisher Scientific, Waltham, MA, USA). The analytes were detected in Full MS/dd-MS^2 mode to choose the parent ion and optimize the retention time; then, we used the parallel reaction monitoring (PRM) mode through positive ionization condition for determination. Xcalibur 4.1 software (Thermo Fisher Scientific) was used for data acquisition and processing.
Chromatographic separation was achieved on a Shimadzu-pack GIST column (50 mm × 2.1 mm, 2 μm, Shimadzu Company, Kyoto, Japan). Binary mobile solvents consisted of water (containing 0.1% FA, v/v) (A) and acetonitrile (B), the gradient program was as follows: 0 min 60% A → 1 min 60% A → 1.5 min 20% A → 7 min 20% A → 7.1 min 60% A → 8.5 min 60% A. The flow rate was set at 0.30 mL/min and the column temperature was 40 °C. The typical source parameters were optimized as follows: spray voltage: 4500 V; capillary temperature: 320 °C; auxiliary gas heater temperature: 200 °C; pressure of sheath gas: 320 kPa; auxiliary gas: 50 kPa.
Phoenix/WinNonlin software (version 6.4; Pharsight, Mountain View, CA, USA) was used to calculate the AUC and other pharmacokinetic parameters in plasma or tissue for each drug in a non-compartmental model.

eeAChE = eeAChE from electric eel, cited from earlier work; for IC50: mean ± SEM, at least three experiments
eqBuChE = eqBuChE from horse serum; mean ± SEM, at least three experiments; read-out: IC50 BuChE; cited from earlier work
[2] = cited from earlier work
in vivo [3] = conditions: for Cmax / Kp / selectivity ratio: male, SD, rat, in vivo; for Cmax / Kp: po; for Cmax: 15 mg/kg; for Kp: AUCtissue/AUCplasma; for AUCbrain: brain; for AUCheart: heart; for AUCkidney: kidney; for AUCliver: liver; for AUClung: lung; for AUCspleen: spleen
Procedure: Drug exposure in tissue is calculated by drug exposure in the plasma and tissue/plasma distribution coefficient (Kp), as shown in Equation (1):Drug exposure in the tissue = drug exposure in the plasma × Kp(1) where drug exposure in the plasma and the tissue can be calculated by the drug concentration vs. time curve, and Kp values can be calculated by Ctissue/Cplasma or AUCtissue/AUCplasma. […] It is worth mentioning that Kp can be evaluated by the ratio of free fraction of drug candidate in plasma vs. in tissues in steady state. Nevertheless, this assessment is based on “free drug hypothesis” theory, which presumes that free drug concentration in tissue is close to that in plasma.
Dose escalation tests are always evaluated during clinical phase I/II trials, and MTD is constantly associated with drug exposure in certain toxicity-related organs. […] To evaluate the balance between efficacy and toxicity for drug candidates, drug tissue selectivity is a crucial parameter and defined as follows in Equation (2), where the sum of Ctissue or AUCtissue is total drug concentration or AUC in different tissues. Drug tissue selectivity = Ctissue/ΣCtissue or AUCtissue/ΣAUCtissue(2)
as §1, §2, §3
Chromatographic separation was achieved on a Shimadzu-pack GIST column (50 mm × 2.1 mm, 2 μm, Shimadzu Company, Kyoto, Japan).

[4] = male, SD, rat, in vivo, po, 15 mg/kg
[5] = rats, single intragastric 15 mg/kg, plasma

Structure (SMILES)	AUC (in vivo [1]; [4]) [ng·h/mL]	AUC(0-inf) (in vivo [1]; [4]) [ng·h/mL]	AUC(0-t) (in vivo [1]; [4]) [ng·h/mL]	Cmax (in vivo [1]; [4]) [ng/mL]	MRT last (in vivo [1]; [4]) [h]	Tmax (in vivo [1]; [4]) [h]	half-life (in vivo [1]; [4]) [h]	CL (in vivo [1]; [5]) [mL/min/kg]	Vd (in vivo [1]; [5]) [L/kg]	IC50 (eeAChE) [µM]	IC50 (eqBuChE) [µM]	further results
C=C(C)[C@@H]1CCC(C)=C[C@H]1c1c(O)cc(CCCCC)cc1O [CBD, Cannabidiol, reference compound]	158	168 ± 11.5	158 ± 10.6	48.9 ± 11	2.84 ± 0.23	1.2 ± 0.45	3.7 ± 1.26	1492 ± 107	474.16 ± 155.23	17.1 ± 2.43	0.67 ± 0.06	Tmax (reported values) [2]: 0 to 4 h; t1/2 (reported values) [2]: 1.4 to 10.9 h
C=C(C)C1CCC(C)=CC1c1c(O)cc(CCCCC)cc1OC(=O)NC (stereo not shown) [Compound L1]	191	197 ± 58	191 ± 58.7	120 ± 15.9	2.05 ± 0.47	0.22 ± 0.07	2.7 ± 1.27	1353 ± 361.8	319.94 ± 171.55	18.9 ± 1.11	0.128 ± 0.022	metabolism to CBD observed in plasma (in vivo [1]; rats, intragastric administration): can be metabolized to produce CBD
C=C(C)C1CCC(C)=CC1c1c(O)cc(CCCCC)cc1OC(=O)N(C)CC (stereo not shown) [Compound L2]	–	–	–	127 ± 23.6	3.44 ± 0.22	1.8 ± 0.45	2.64 ± 0.45	434.5 ± 74.8	99.38 ± 23.95	15 ± 1.02	0.077 ± 0.005	exposure in the plasma, fold higher than CBD, L1, and L3 (in vivo [1]; rats): > 3 fold; Cmax (in vivo [3]): 56 ng/g; Kp (in vivo [3]; Kp brain, rats): 0.42; Kp (in vivo [3]; Kp heart, rats): 2.63; Kp (in vivo [3]; Kp kidney, rats): 5.51; Kp (in vivo [3]; Kp liver, rats): 5.3; Kp (in vivo [3]; Kp lung, rats): 3.27; Kp (in vivo [3]; Kp spleen, rats): 2.41; selectivity ratio (in vivo [3]; tissue selectivity in the brain, fold higher than L4, AUCtissue/ΣAUCtissue, L2 vs L4): 21; selectivity ratio (in vivo [3]; tissue selectivity in the kidney, fold lower than L4, AUCtissue/ΣAUCtissue, L2 vs L4): 1.2; selectivity ratio (in vivo [3]; tissue selectivity in the liver, fold lower than L4, AUCtissue/ΣAUCtissue, L2 vs L4): 1.8; AUCbrain (in vivo [3]; rats, oral 15 mg/kg): 213.8 ng·h/g; AUCheart (in vivo [3]; rats, oral 15 mg/kg): 1331.9 ng·h/g; AUCkidney (in vivo [3]; rats, oral 15 mg/kg): 2790.2 ng·h/g; AUCliver (in vivo [3]; rats, oral 15 mg/kg): 2684.5 ng·h/g; AUClung (in vivo [3]; rats, oral 15 mg/kg): 1655.0 ng·h/g; AUCspleen (in vivo [3]; rats, oral 15 mg/kg): 1220.9 ng·h/g; exposure in the kidney, fold lower than L4 (in vivo [3]; rats, oral 15 mg/kg, L2 vs L4): 2.8 fold; exposure in the liver, fold lower than L4 (in vivo [3]; rats, oral 15 mg/kg, L2 vs L4): 1.8 fold; brain concentration relative to L4 (in vivo [3]; rats, oral, L2 vs L4): fivefold higher
C=C(C)C1CCC(C)=CC1c1c(O)cc(CCCCC)cc1OC(=O)N1CCCC1 (stereo not shown) [Compound L3]	182	200 ± 32.5	182 ± 13.9	60 ± 8.63	2.72 ± 0.6	0.95 ± 0.11	3.09 ± 1.52	1273 ± 194.7	320.94 ± 106.75	–	0.39 ± 0.04	–
C=C(C)C1CCC(C)=CC1c1c(O)cc(CCCCC)cc1OC(=O)N(C)Cc1ccc(Cl)cc1 (stereo not shown) [Compound L4]	–	–	–	211 ± 30.7	2.38 ± 0.21	0.8 ± 0.11	2.17 ± 0.19	483.2 ± 100	91.52 ± 22.81	–	0.0053 ± 0.0012	exposure in the plasma, fold higher than CBD, L1, and L3 (in vivo [1]; rats): > 3 fold; Cmax (in vivo [3]): 19 ng/g; Kp (in vivo [3]; Kp brain, rats): 0.088; Kp (in vivo [3]; Kp heart, rats): 15.1; Kp (in vivo [3]; Kp kidney, rats): 15.7; Kp (in vivo [3]; Kp liver, rats): 10.1; Kp (in vivo [3]; Kp lung, rats): 15.1; Kp (in vivo [3]; Kp spleen, rats): 11.7; AUCbrain (in vivo [3]; rats, oral 15 mg/kg): 43.2 ng·h/g; AUCheart (in vivo [3]; rats, oral 15 mg/kg): 7431.3 ng·h/g; AUCkidney (in vivo [3]; rats, oral 15 mg/kg): 7723.4 ng·h/g; AUCliver (in vivo [3]; rats, oral 15 mg/kg): 4951.2 ng·h/g; AUClung (in vivo [3]; rats, oral 15 mg/kg): 7421.8 ng·h/g; AUCspleen (in vivo [3]; rats, oral 15 mg/kg): 5773.9 ng·h/g; Inhibition Rate % at 20 µM, AChE (eeAChE; at 20 µM): 21.4 ± 2.8%
C=C(C)[C@@H]1CCC(C)=C[C@H]1c1c(O)cc(CCCCC)cc1O [L1→CBD]	–	–	–	–	–	–	–	1718.8 ± 707.3	577.46 ± 442.26	–	–	AUC0-T (in vivo [1]; [5]): 165.91 ± 87.56 ng·h/mL; AUC0-∞ (in vivo [1]; [5]): 172.51 ± 84.52 ng·h/mL; Cmax (in vivo [1]; [5]): 94.59 ± 27.06 ng/mL; MRT0-T (in vivo [1]; [5]): 2.21 ± 0.42 h; Tmax (in vivo [1]; [5]): 0.27 ± 0.15 h; t1/2 (in vivo [1]; [5]): 3.43 ± 1.64 h
CNC(=O)Oc1ccc2c(c1)[C@]1(C)CCN(C)[C@@H]1N2C [physostigmine]	–	–	–	–	–	–	–	–	–	–	–	drug concentration in brains after oral vs intramuscular administration, times less [2]: 350 times; drug concentration in plasma after oral vs intramuscular administration, times less [2]: 200 times; bioavailability ([2]; first-pass metabolism): 2%
CCN(C)C(=O)Oc1cccc([C@H](C)N(C)C)c1 [rivastigmine, reference compound]	–	–	–	–	–	–	–	–	–	–	–	bioavailability [2]: 36–40%
